Data: PubChem BioAssay (NCI)
Several values for one entry are separate records, joined by “and”; a condition that tells them apart may be missing. Equal values may be shown once.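 1) Cells in 96-well plates. 2) Compound, 48 h, 5 concentrations. 3) Linear interpolation between surrounding doses. 4) Unreached endpoint = highest concentration. At the GI50, growth is halved. At the TGI there is no net growth.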

Legend:
Test in all cases: growth of human tumour cells (NCI), 48 h
UACC-257 melanoma = test system: UACC-257 melanoma
786-0 renal = test system: 786-0 renal
DU-145 prostate = test system: DU-145 prostate
RXF 393 renal = test system: RXF 393 renal
COLO 205 colon = test system: COLO 205 colon
NCI-H522 lung = test system: NCI-H522 lung
MOLT-4 leukemia = test system: MOLT-4 leukemia
NCI-H226 lung = test system: NCI-H226 lung
NCI-H460 lung = test system: NCI-H460 lung
SK-MEL-5 melanoma = test system: SK-MEL-5 melanoma

Structure (SMILES)	GI50 (UACC-257 melanoma)	TGI (UACC-257 melanoma)	GI50 (786-0 renal) [µM]	TGI (786-0 renal)	GI50 (DU-145 prostate) [µM]	TGI (DU-145 prostate)	GI50 (RXF 393 renal)	TGI (RXF 393 renal)	GI50 (COLO 205 colon)	TGI (COLO 205 colon)	GI50 (NCI-H522 lung) [µM]	TGI (NCI-H522 lung)	GI50 (MOLT-4 leukemia)	TGI (MOLT-4 leukemia)	GI50 (NCI-H226 lung)	TGI (NCI-H226 lung)	GI50 (NCI-H460 lung)	TGI (NCI-H460 lung)	GI50 (SK-MEL-5 melanoma)	TGI (SK-MEL-5 melanoma)
O=C(/C=C/c1ccco1)c1cccc(Nc2nc(Nc3ccccc3)nc(Nc3ccccc3)n2)c1	> 44.7 µM	> 83.8 µM	8.49	> 100 µM	14.5	> 100 µM	1.36 µM	8.15 µM	2.29 µM	14.3 µM	44.6	> 100 µM	4.34 µM	> 31.8 µM	18.3 µM	> 82 µM	1.4 µM	> 27.1 µM	22 µM	> 100 µM
COc1nc(C(Cl)(Cl)Cl)c(Cl)c(OC)c1Cl	> 50.9 µM	> 72.9 µM and 79.7 µM	> 41.1	> 55.3 µM and 18.8 µM		73.2 µM		> 55.1 µM and 71.8 µM		> 65.1 µM and 80 µM		> 31.6 µM and 70.4 µM	> 44.9 µM	> 67.4 µM and 62.3 µM		71.5 µM	> 39.4 µM	> 57.9 µM and 61.2 µM	19.6 µM	34.5 µM and 83.2 µM
COc1cccc(-c2nn(C)c3sc(C(=O)NCCN4CCN(c5ccccc5F)CC4)cc23)c1	28.4 µM	> 100 µM	5.24	25.1 µM	34.2	> 100 µM	3.17 µM	> 100 µM	20.6 µM	> 100 µM	18.8	> 100 µM	5.15 µM	> 100 µM	31.3 µM	> 100 µM	14.8 µM	> 100 µM	6.38 µM	26.2 µM
CN(Cc1cccc(Cl)c1)c1ccc(CO)c(Cl)c1	0.569 µM	2.15 µM	12.4	27.2 µM	21	> 51.1 µM	8.55 µM	23.4 µM	7.39 µM	20.9 µM	17.2	41.4 µM	20 µM	56.6 µM	0.113 µM	0.284 µM	1.44 µM	15.2 µM	7.47 µM	20.7 µM
COc1cc(-c2nc3cc(Cl)c(Cl)cc3[nH]2)ccc1OCC(=O)N=Nc1c(O)[nH]c2ccccc12	1.32 µM	3.67 µM	0.37	1.54 µM	0.501	1.9 µM	0.678 µM	2.1 µM	0.384 µM	1.5 µM	0.301	2.18 µM			1.04 µM	2.67 µM	0.42 µM	1.63 µM	0.541 µM	1.76 µM
O=C1/C=C/[C@@H](O)[C@@H]2C[C@@H](O)C[C@H]2/C=C/CCCCO1	0.545 µM	> 100 µM	0.25	0.615 µM	0.857	> 100 µM	0.424 µM		0.188 µM	0.393 µM	1.77	5.63 µM	1.4 µM		0.224 µM		1.77 µM	> 100 µM	0.157 µM	0.295 µM
C=CCOc1ccc2c(c1)CC[C@@H]1[C@@H]2CC[C@]2(C)C(=O)/C(=N/O)C[C@@H]12	11.8 µM	59 µM	4.77	25.4 µM	3.1	15.6 µM	1.98 µM	11.8 µM	3.16 µM	12.6 µM	5.59	17.4 µM	2.44 µM	6.92 µM	5.06 µM	21.7 µM	4.71 µM	22.1 µM	11.6 µM	25.7 µM
CC(=O)SC(C[N+](=O)[O-])c1ccccc1 (stereo not drawn)		24.5 µM		23.7 µM		> 46.7 µM		4.01 µM		7.47 µM		31 µM		5.36 µM		5.72 µM		24.8 µM		8.77 µM
COc1cc(Cl)c(C)cc1NC(=O)c1cc2ccccc2cc1O	1.94 µM	5.93 µM	3.13	8.53 µM	3.4	14.4 µM	2.84 µM	7.01 µM	2.37 µM	8.41 µM	1.46	4.47 µM	2.85 µM	14 µM	1.94 µM	6.28 µM	2.74 µM	9.63 µM	1.72 µM	3.93 µM
OC(c1cc2c(Cl)cc(Cl)cc2c2cc(C(F)(F)F)ccc12)C1CCCCN1 (stereo not drawn)	1.92 µM	3.7 µM	1.66	3.5 µM	2	3.55 µM	1.61 µM	3.12 µM	1.88 µM	3.55 µM	1.55	3.22 µM			1.73 µM	3.56 µM	1.7 µM	3.4 µM	1.73 µM	3.12 µM
COc1ccc(-n2cc(-c3ccc(F)cc3)[nH]c2=O)cc1OC	> 100 µM	> 100 µM	> 100	> 100 µM	> 100	> 100 µM	> 100 µM	> 100 µM	> 100 µM	> 100 µM	> 100	> 100 µM	> 100 µM	> 100 µM	> 100 µM	> 100 µM	> 100 µM	> 100 µM	> 100 µM	> 100 µM
O=c1c(Br)ccc(Br)cc1Br	1.91 µM	3.49 µM	2.07	3.7 µM	1.75	3.14 µM	1.65 µM	3.06 µM	0.216 µM	0.442 µM	0.17	0.364 µM	0.41 µM	1.86 µM	2.94 µM	9.7 µM	4.88 µM	11.5 µM	3.19 µM	10.9 µM
O=C(Nc1ccc(-n2cc(-c3ccncc3)c(-c3ccc(Cl)c(O)c3)n2)cc1)c1ccc(Cl)c(C(F)(F)F)c1	3.27 µM	39.9 µM	0.308	0.919 µM	2.7	> 20.3 µM	0.213 µM	0.606 µM	1.94 µM	4.64 µM	1.14	4.04 µM	0.652 µM	> 29.3 µM	16.3 µM	> 71 µM	1.43 µM	11.1 µM	0.6 µM	1.64 µM
Nc1ncnc2c1c(-c1ccc(Oc3ccccc3)cc1)nn2C[C@H]1SSC[C@H]1O	0.208 µM	1.36 µM	2.04	6.37 µM	1.07	2.37 µM	1.35 µM	4.31 µM	0.464 µM	1.8 µM	0.953	3.16 µM	0.0184 µM	0.0492 µM	1.43 µM	3.42 µM	0.0233 µM	0.0565 µM	0.159 µM	0.372 µM
CCCCCCOc1ccc(/C=N/Nc2cc(C)nc3ccc(Br)cc23)cc1	1.95 µM	3.65 µM	1.71	3.18 µM	1.92	3.7 µM	1.55 µM	2.95 µM	1.85 µM	3.51 µM	1.7	3.32 µM	1.2 µM	3.18 µM	1.6 µM	3.16 µM	1.94 µM	3.88 µM	1.67 µM	3.04 µM
COc1cc(-c2cc(C(=O)N3CCN(C(=O)c4ccccc4NCc4cccs4)CC3)nc3cc(-c4ccccc4)nn23)cc(OC)c1OC	> 100 µM	> 100 µM	11.4	> 100 µM	5	40.6 µM	2.45 µM	8.01 µM	4.04 µM	26.5 µM	1.67	4.68 µM	43.7 µM	> 100 µM	6.39 µM	> 100 µM	4.26 µM	> 100 µM	2.85 µM	11.5 µM
N=C(N)c1ccc(-c2ccc(-c3ccccc3)o2)o1	2.52 µM	6.35 µM	1.74	3.54 µM	3.3	11.6 µM	2.33 µM	6.55 µM	1.78 µM	3.49 µM	1.94	3.89 µM	3.31 µM	10.2 µM	5.7 µM	24.2 µM	2.45 µM	5.82 µM	1.75 µM	3.19 µM
NC(CSC(c1ccccc1)(c1ccccc1)c1ccc(Br)cc1)C(=O)O (stereo not drawn)	7.44 µM	> 72.8 µM	0.119	1.58 µM	0.236	0.548 µM	0.103 µM	> 35.6 µM	0.241 µM	15.2 µM	0.12	22.3 µM	0.651 µM	> 82.1 µM	11.3 µM	33.4 µM	0.175 µM	18.1 µM	0.0721 µM	12.2 µM
N[C@@H](Cc1ccc(N(CCCl)CCCl)cc1)C(=O)O	37.6 µM and 20.2 µM	> 100 µM and 58.9 µM and 119 µM	13.3	48 µM and 72.6 µM	18.8	85.7 µM and 227 µM	16.9 µM and 15.9 µM	47.1 µM and 32.9 µM and 69.9 µM	23.6 µM and 18.4 µM	> 100 µM and 37.1 µM and 107 µM	14.4	29.5 µM and 66.8 µM	3.43 µM and 1.45 µM	20.6 µM and 24.5 µM and 52.6 µM	44.6 µM and 26.6 µM	> 100 µM and 52.7 µM and 156 µM	3.01 µM and 3.78 µM	> 100 µM and 29.2 µM and 103 µM	27 µM and 18.4 µM	> 100 µM and 40 µM and 88 µM
Nc1nc(-c2ccccc2Cl)cc(-c2ccc(Cl)cc2Cl)n1	11.9 µM	55.2 µM	20.2	> 100 µM	5.33	70.1 µM	2.67 µM	10.7 µM	3.52 µM	15.5 µM	3.27	23.3 µM	4.82 µM	> 100 µM	18.1 µM	> 100 µM	3.31 µM	23.1 µM	4.78 µM	20.8 µM
Cn1cc(C2=C(c3cn(CCCN/C(N)=N\[N+](=O)[O-])c4ccccc34)C(=O)NC2=O)c2ccccc21	7.12 µM	21.8 µM	5.07	> 25 µM	6.75	23.6 µM	2 µM	7.3 µM	1.24 µM	6.44 µM	2.44	9.99 µM	2.25 µM	> 16.4 µM	4.56 µM	> 19.1 µM	5.9 µM	20.6 µM	2.33 µM	7.37 µM
Cc1nc(N(C)C)nc(-c2cccc(-c3ccn(CCN(C)C)n3)c2)c1C	> 20 µM	> 20 µM	> 20	> 20 µM	> 20	> 20 µM	> 20 µM	> 20 µM	> 20 µM	> 20 µM	> 20	> 20 µM	> 20 µM	> 20 µM	> 20 µM	> 20 µM	> 20 µM	> 20 µM	15.9 µM	> 20 µM
Nc1c(C(=O)Nc2cccc3ccccc23)sc2nc3c(cc12)CCCCCC3	> 50 µM	> 50 µM	2.13	> 50 µM	2.05	> 50 µM	1.5 µM	> 50 µM	1.45 µM	4.8 µM	0.865	4.33 µM	2.38 µM	> 50 µM	5.5 µM	> 50 µM	1.76 µM	> 50 µM	0.929 µM	6.85 µM
O=c1c(-c2nc3ccccc3[nH]2)cc2ccccc2n1Cc1cn(Cc2ccc(F)cc2)nn1	> 100 µM	> 100 µM	0.415	11.3 µM	0.143	1.05 µM	0.125 µM	0.484 µM			0.0957		0.233 µM	> 100 µM	0.572 µM	> 100 µM	0.0435 µM	> 100 µM	0.164 µM	> 85.7 µM
Nc1c2c(c(O)c3c1=C(CO)C=N3)=NCCS2=O (stereo not drawn)	1.62 µM	3.14 µM	1.98	4.52 µM	1.54	2.87 µM	3.84 µM	17.5 µM	1.71 µM	3.52 µM	1.37	3.3 µM	1.24 µM	4.22 µM	1.79 µM	4.17 µM	0.649 µM	2.31 µM	1.13 µM	2.36 µM
C=C(C=O)[C@@H]1CC=C(C=O)CC1	15 µM	57.9 µM	16.8	80 µM	3.44	11.2 µM	3.72 µM	> 100 µM			37.8	> 100 µM	3.69 µM	> 100 µM	21.1 µM	98.7 µM	13.8 µM	> 77.2 µM	3.9 µM	> 46.5 µM
